Reference: patent publication US12624018B1, “Inhibitors of RIPK2 and medical uses thereof” (Odyssey Therapeutics, Inc., priority 2022, dated 2026)

Target: T1, RIPK2 enzyme (Homo sapiens, UniProt O43353)
T1 construct: purchased Carna 09-128
Experiment: RIPK2 inhibition (ADP-Glo Kinase Assay)
Assay type: biochemical
Settings: RIPK2 5 nM, ATP 150 μM, MBP substrate, read-out: RIPK2 IC50
Outline: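 Swine MBP substrate; compound and 5 nM RIPK2 first mixed for 30 min at room temperature; buffer pH 7.5 HEPES 50 mM with 10 mM MgCl2, 2 mM DTT, 1 mM EGTA, Brij-35, BSA.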

T1 sequence (O43353 1-299 limits assumed): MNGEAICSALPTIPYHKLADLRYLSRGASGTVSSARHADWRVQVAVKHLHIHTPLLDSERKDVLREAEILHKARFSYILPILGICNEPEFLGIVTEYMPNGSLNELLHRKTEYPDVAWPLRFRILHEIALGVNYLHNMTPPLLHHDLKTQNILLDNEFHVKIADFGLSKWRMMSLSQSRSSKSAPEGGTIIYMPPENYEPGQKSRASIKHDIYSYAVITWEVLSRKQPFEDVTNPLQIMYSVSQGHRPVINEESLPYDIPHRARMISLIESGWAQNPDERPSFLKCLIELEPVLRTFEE

IC50 [nM] | Compound
< 2.5 | Cc1cc(CC(=O)Nc2cnn(C(C)(C)C)c2)ccc1Oc1ccnc2ccc(OCC3CCCN3)cc12 (single isomer, unassigned) [Compound 191, N-(1-(tert-butyl)-1H-pyrazol-4-yl)-2-(3-methyl-4-((6-(pyrrolidin-2-ylmethoxy)quinolin-4-yl)oxy)phenyl) acetamide]
< 2.5 | Cc1cc(CC(=O)Nc2cnn(C(C)(C)C)c2)cc(C)c1Oc1ccnc2ccc(S(C)(=O)=O)cc12 [Compound 445, N-(1-(tert-butyl)-1H-pyrazol-4-yl)-2-(3,5-dimethyl-4-((6-(methylsulfonyl)quinolin-4-yl)oxy)phenyl)acetamide]
< 2.5 | CNC(=O)c1cc2c(Oc3cc(F)c(CC(=O)Nc4cnn(C(C)(C)C)c4)cc3C)ccnc2cc1F [Compound 435, 4-(4-(2-((1-(tert-butyl)-1H-pyrazol-4-yl)amino)-2-oxoethyl)-5-fluoro-2-methylphenoxy)-7-fluoro-N-methylquinoline-6-carboxamide]
< 2.5 | Cc1cc(CC(=O)Nc2cnn(C(C)(C)C)c2)c(F)cc1Oc1ccnc2ccc(C(=O)N3CCNCC3)cc12 [Compound 379, N-(1-(tert-butyl)-1H-pyrazol-4-yl)-2-(2-fluoro-5-methyl-4-((6-(piperazine-1-carbonyl)quinolin-4-yl)oxy)phenyl) acetamide]
< 2.5 | Cc1cc(CC(=O)Nc2nnc(C(C)(C)C)o2)ccc1Oc1ccnc2ccc(S(C)(=O)=O)cc12 [Compound 431, N-(5-(tert-butyl)-1,3,4-oxadiazol-2-yl)-2-(3-methyl-4-((6-(methylsulfonyl)quinolin-4-yl)oxy)phenyl) acetamide]
< 2.5 | Cc1cc(CC(=O)Nc2cnn(C(C)(C)C)c2)c(F)cc1Oc1ccnc2ccc(C(=O)N3[C@H](C)COC[C@@H]3C)cc12 [Compound 451, N-(1-(tert-butyl)-1H-pyrazol-4-yl)-2-(4-((6-((3S,5R)-3,5-dimethylmorpholine-4-carbonyl)quinolin-4-yl)oxy)-2-fluoro-5-methylphenyl)acetamide]
< 2.5 | COc1cc2nccc(Oc3ccc(CC(=O)Nc4cnn(C(C)(C)C)c4)c(F)c3)c2cc1S(C)(=O)=O [Compound 39, N-(1-(tert-butyl)-1H-pyrazol-4-yl)-2-(2-fluoro-4-((7-methoxy-6-(methylsulfonyl)quinolin-4-yl)oxy)phenyl)acetamide]
2.8 | CC(C)(C)n1cc(NC(=O)Cc2ccc(Oc3ccnc4ccc(S(C)(=O)=O)cc34)c(C#N)c2)cn1 [Compound 432, N-(1-(tert-butyl)-1H-pyrazol-4-yl)-2-(3-cyano-4-((6-(methylsulfonyl)quinolin-4-yl)oxy)phenyl)acetamide]
< 2.5 | Cc1c(Oc2ccnc3ccc(C(=O)N4C[C@@H](C)O[C@@H](C)C4)cc23)ccc(CC(=O)Nc2cnn(C(C)(C)C)c2)c1F [Compound 384, N-(1-(tert-butyl)-1H-pyrazol-4-yl)-2-(4-((6-((2R,6S)-2,6-dimethyl-morpholine-4-carbonyl)quinolin-4-yl)oxy)-2-fluoro-3-methyl-phenyl) acetamide]
< 2.5 | CN1CCC(Oc2ccc3ncnc(Oc4ccc(CC(=O)Nc5cnn(C(C)(C)C)c5)c(F)c4F)c3c2)CC1 [Compound 170, N-(1-(tert-butyl)-1H-pyrazol-4-yl)-2-(2,3-difluoro-4-((6-((1-methyl-piperidin-4-yl)oxy)quinazolin-4-yl)oxy)phenyl) acetamide]
< 2.5 | Cc1c(Oc2ccnc3ccc(P(C)(C)=O)cc23)ccc(CC(=O)Nc2cnn(C(C)(C)C)c2)c1F [Compound 300, N-(1-(tert-butyl)-1H-pyrazol-4-yl)-2-(4-((6-(dimethylphosphoryl)quinolin-4-yl)oxy)-2-fluoro-3-methylphenyl) acetamide]
< 2.5 | Cc1cc(CC(=O)Nc2cnn(C(C)(C)C)c2)c(F)cc1Oc1ccnc2ccc(C(=O)NC3CNC3)cc12 [Compound 397, N-(azetidin-3-yl)-4-(4-(2-((1-(tert-butyl)-1H-pyrazol-4-yl)amino)-2-oxoethyl)-5-fluoro-2-methyl-phenoxy) quinoline-6-carboxamide]
< 2.5 | Cc1c(Oc2ccnc3ccc(C(=O)NCCO)cc23)ccc(CC(=O)Nc2cnn(C(C)(C)C)c2)c1F [Compound 339, 4-(4-(2-((1-(tert-butyl)-1H-pyrazol-4-yl)amino)-2-oxoethyl)-3-fluoro-2-methyl-phenoxy)-N-(2-hydroxyethyl) quinoline-6-carboxamide]
< 2.5 | CC(C)(C)c1cc(NC(=O)Cc2ccc(Oc3ccnc4ccc(OC5CCNCC5)cc34)cc2F)n[nH]1 [Compound 137, N-(5-(tert-butyl)-1H-pyrazol-3-yl)-2-(2-fluoro-4-((6-(piperidin-4-yloxy)quinolin-4-yl)oxy)phenyl) acetamide]
< 2.5 | Cc1cc(CC(=O)Nc2cnn(C(C)(C)C)c2)ccc1Oc1ccnc2ccc(-c3ncc(CO)cn3)cc12 [Compound 244, N-(1-(tert-butyl)-1H-pyrazol-4-yl)-2-(4-((6-(5-(hydroxymethyl)pyrimidin-2-yl)quinolin-4-yl)oxy)-3-methylphenyl)acetamide]
< 2.5 | Cc1cc(CC(=O)Nc2cnn(C(C)(C)C)c2)ccc1Oc1ccnc2ccc(N3CCCC3=O)cc12 [Compound 290, N-(1-(tert-butyl)-1H-pyrazol-4-yl)-2-(3-methyl-4-((6-(2-oxopyrrolidin-1-yl)quinolin-4-yl)oxy)phenyl) acetamide]
< 2.5 | Cc1cc(CC(=O)Nc2cnn(C(C)(C)C)c2)ccc1Oc1ccnc2ccc(S(=O)(=O)C3CCC(=O)NC3)cc12 (stereo not shown) [Compound 243, N-(1-(tert-butyl)-1H-pyrazol-4-yl)-2-(3-methyl-4-((6-((6-oxopiperidin-3-yl)sulfonyl)quinolin-4-yl)oxy)phenyl)acetamide]
11.3 | CCN1CCC(Oc2ccc3nccc(Oc4cnc(CC(=O)Nc5cnn(C(C)(C)C)c5)c(F)c4)c3c2)CC1 [Compound 108, N-(1-(tert-butyl)-1H-pyrazol-4-yl)-2-(5-((6-((1-ethylpiperidin-4-yl)oxy)quinolin-4-yl)oxy)-3-fluoropyridin-2-yl)acetamide]
< 2.5 | CN1CCC(Oc2ccc3nccc(Oc4ccc(CC(=O)Nc5cnn(C(C)(C)C)c5)cc4Cl)c3c2)CC1 [Compound 172, N-(1-(tert-butyl)-1H-pyrazol-4-yl)-2-(3-chloro-4-((6-((1-methyl-piperidin-4-yl)oxy)quinolin-4-yl)oxy)phenyl) acetamide]
< 2.5 | Cc1cc(CC(=O)Nc2cnn(C(C)(C)C)c2)ccc1Oc1ccnc2ccc([S+](C)[O-])cc12 (single isomer, unassigned) [Compound 321, N-(1-(tert-butyl)-1H-pyrazol-4-yl)-2-(3-methyl-4-((6-(methylsulfinyl)quinolin-4-yl)oxy)phenyl)acetamide]
< 2.5 | CC(C)(C)c1cc(NC(=O)Cc2ccc(Oc3ccnc4ccc(S(C)(=N)=O)cc34)cc2F)[nH]n1 (stereo not shown) [Compound 65, N-(5-(tert-butyl)-1H-pyrazol-3-yl)-2-(2-fluoro-4-((6-(S-methylsulfonimidoyl)quinolin-4-yl)oxy)phenyl) acetamide]
< 2.5 | Cc1cc(CC(=O)Nc2cnn(C(C)(C)C)c2)ccc1Oc1ccnc2ccc(S(=O)(=O)CCO)cc12 [Compound 203, N-(1-(tert-butyl)-1H-pyrazol-4-yl)-2-(4-((6-((2-hydroxyethyl)sulfonyl)quinolin-4-yl)oxy)-3-methylphenyl)acetamide]
